Patent US11926613B2, “Kinase inhibitors for the treatment of central and peripheral nervous system disorders” (UNIVERSITY OF MIAMI, priority 2017, dated 2024)
Read-outs that look alike come from different tables or passages of the source.

Legend:
Primary Neurons = experiment: HCS neurite outgrowth assay (High Content Screening with Primary Neurons); assay type: cell-based
[1] = test system: neurons from hippocampi of E18 rat embryos; experiment: Neurite growth length (% NTL) in cultured E18 rat hippocampal neurons, 9-point dose response, 48 hours; assay type: cell-based; settings: for activity at 0.078 µM / activity at 0.156 µM / activity at 0.312 µM / activity at 0.625 µM / activity at 1.25 µM / activity at 2.5 µM / activity at 5 µM / activity at 10 µM / activity at 20 µM: Rattus norvegicus, Neuron, 48 h
Protocol: PRE-COATING CULTURE PLATES: On the day before the experiment, 96-well plates were pre-coated by plating 50 μl of Poly-D-lysine solution (PDL, 0.5 mg/mL) in each well. The next morning, the plates were washed four or five times with HBSS or PBS (150 μl/rinse), then left in buffer until cell plating
PREPARING THE CELLS: A timed pregnant rat carrying E18 embryos was euthanized using an IACUC approved method. In a laminar flow hood, the embryos were removed and placed in a petri dish containing Hank's Balanced Salt Solution (HBSS) with 20 mM HEPES, pH 7.3. Pup brains were dissected (see Meberg et al., 2003) and hippocampi were collected in 15 mL a conical tube containing Hibernate E with SM1 (2% v/v).
Dissociation media was prepared by combining 4.5 mL of Hibernate E (without SM1) with 0.5 mL of trypsin and 100 μl of DNAse solution. The medium over the hippocampi was carefully removed and replaced with dissociation solution, then incubated at 37° C. for 15-20 minutes, occasionally swirling the tube.
Using flame polished cotton plugged Pasteur pipettes, the dissociation media was removed, and then 5 mL of Hibernate E containing SM1 were added. The tube was swirled to thoroughly wash the tissue. The tissue was allowed to settle to the bottom of the tube, and the rinse solution was carefully removed. This step was repeated 5 times to dilute out trypsin and DNAse and remove any debris from lysed cells.
The final rinse media was removed from the tube and 1 pipette-full (1-2 mL) of Hibernate E with SM1 was added. Using the flame-polished Pasteur pipette (pre-wetted with rinse media), the tube was triturated until all cells had dissociated and no visible chunks of tissue remained. Fewer than ten triturations were typically performed. The volume was adjusted to 8-12 mL using Hibernate E containing SM1, the well was mixed and cell concentration was determined.
PLATING: The cells were diluted in culture media (NbActiv4 Cell-culture media) to a final concentration of 10,000 cells/mL. The HBSS was aspirated from PDL coated plates, and 150 μL of cell solution was loaded in the middle 48 wells at 1500 cells per well. Water was loaded in the outer wells to decrease evaporation from edge wells. Cells were allowed to adhere for 2 hours in tissue culture incubator prior to treatment.
TREATMENT: Compounds were diluted to various concentrations to provide 9 dose response concentrations of 20 μM, 10 μM, 5, μM, 2.5 μM, 1.25 μM, 0.625 μM, 0.3125 μM, 0.15625 μM, and 0.078125 μM. The plates were cultured for 48 hours, exposed to the compound at the various dose response concentrations.
FIXING THE CULTURES: The culture medium was removed from the plates and immediately replaced with 100-200 μl of warm (37° C.) 4% paraformaldehyde (PFA) solution in phosphate-buffered saline (PBS). The cells were fixed for 15-20 minutes at room temperature, and then rinsed with PBS (200 μl/well×3).
STAINING AND IMAGING: The PBS was removed and replaced with 100 μl of blocking/permeabilization buffer (PBS, 0.2% fish gelatin, 0.03% Triton X-100, 0.02% NaN3), then incubated overnight at 4° C. To this was added 100 μl of primary antibody solution (mouse anti-Beta III tubulin in blocking buffer) and incubate overnight at 4° C. The wells were rinsed with PBS (200 μl×3), which was then removed and replaced with 100 μl of secondary antibody solution (Goat anti-mouse Alexa 488, 10 μg/ml Hoechst 33342, 0.2% fish gelatin, 0.02% azide, in PBS). The plate was shaken gently on a rotating shaker for 2 hours, then rinsed with PBS (200 μl×5).
The plate was imaged using a Cellomics ArrayScan VTI in 2 different channels for nuclear staining (Hoechst) and cell body/neurite staining (βIII-tubulin). Typically, nine fields per well were imaged with a 5× objective and automatically traced by the Neuronal Profiling Bioapplication. To get reproducible results, at least 200-300 valid neurons were measured per condition. […]

For “2-(4-(((3R,4R)-4-(isonicotinamido)pyrrolidin-3- yl)carbamoyl)benzoyl)-4-methoxyphenyl acetate [Example A89]”, the EC50 (Primary Neurons) was 8.08 µM.
For “2-(4-(((3R,4R)-4-(isonicotinamido)pyrrolidin-3- yl)carbamoyl)benzoyl)-4-methoxyphenyl benzoate [Example A87]”, the EC50 (Primary Neurons) was 13.1 µM.
Compound O=C(N[C@@H]1CNC[C@H]1NC(=O)c1ccncc1)c1ccncc1 (stereo in doubt) [Example A10, N-[(3R,4R)-4-(pyridine-4-amido)pyrrolidin-3-yl]pyridine-4-carboxamide] has an EC50 (Primary Neurons; Primary neuron) of 0.93 µM, an activity at 0.078 µM ([1]; 78 nM) of 91.7% and an activity at 0.156 µM ([1]; 156 nM) of 91.2%. For the same compound, the activity at 0.312 µM ([1]; 312 nM) was 87.5%, the activity at 0.625 µM ([1]; 625 nM) was 88.2% and the activity at 1.25 µM ([1]; 1.25 μM) was 83.7%. It also gave an activity at 2.5 µM ([1]; 2.5 μM) of 82.9%, an activity at 5 µM ([1]; 5 μM) of 85.9% and an activity at 10 µM ([1]; 10 μM) of 86%. For the same compound, the activity at 20 µM ([1]; 20 μM) was 92.6%.
O=C(N[C@@H]1CNC[C@H]1NC(=O)c1ccc(C(=O)c2ccccc2)cc1)c1ccncc1 (stereo in doubt) [Example A13, N-[(3R,4R)-4-(4-benzoylbenzamido)pyrrolidin-3-yl]pyridine-4-carboxamide] showed an EC50 (Primary Neurons; Primary neuron) of 4.96 µM, an activity at 0.078 µM ([1]; 78 nM) of 99.5% and an activity at 0.156 µM ([1]; 156 nM) of 101%. The activity at 0.312 µM ([1]; 312 nM) was 97.7%, the activity at 0.625 µM ([1]; 625 nM) was 103% and the activity at 1.25 µM ([1]; 1.25 μM) was 106%. It also gave an activity at 2.5 µM ([1]; 2.5 μM) of 113%, an activity at 5 µM ([1]; 5 μM) of 120% and an activity at 10 µM ([1]; 10 μM) of 129%. It also gave an activity at 20 µM ([1]; 20 μM) of 147%.
In the case of O=C(N[C@@H]1CNC[C@H]1NC(=O)c1ccncc1)c1ccccc1 (stereo in doubt) [Example A20, N-[(3R,4R)-4-benzamidopyrrolidin-3-yl]pyridine-4-carboxamide], the EC50 (Primary Neurons; Primary neuron) is reported as 9.49 µM, the activity at 0.078 µM ([1]; 78 nM) is reported as 86.2% and the activity at 0.156 µM ([1]; 156 nM) is reported as 81.5%. It also gave an activity at 0.312 µM ([1]; 312 nM) of 77.7%, an activity at 0.625 µM ([1]; 625 nM) of 86.1% and an activity at 1.25 µM ([1]; 1.25 μM) of 88.4%. It also gave an activity at 2.5 µM ([1]; 2.5 μM) of 90.2%, an activity at 5 µM ([1]; 5 μM) of 90.7% and an activity at 10 µM ([1]; 10 μM) of 93.8%. The activity at 20 µM ([1]; 20 μM) was 103%.
For COc1ccc(O)c(C(=O)c2ccc(C(=O)NC3CNC[C@H]3NC(=O)c3ccncc3)cc2)c1F (stereo in doubt) [Example A32, N-[(3R,4S)-4-[4-(2-fluoro-6-hydroxy-3-methoxybenzoyl)benzamido]pyrrolidin-3-yl]pyridine-4-carboxamide], the EC50 (Primary Neurons) was over 20 µM, the “neurite growth length (% NTL)” value ([1]; 78 nM) was 98.72 % NTL and the “neurite growth length (% NTL)” value ([1]; 156 nM) was 86.89 % NTL. The “neurite growth length (% NTL)” value ([1]; 312 nM) was 88.20 % NTL, the “neurite growth length (% NTL)” value ([1]; 625 nM) was 84.61 % NTL and the “neurite growth length (% NTL)” value ([1]; 1.25 μM) was 81.36 % NTL. The “neurite growth length (% NTL)” value ([1]; 2.5 μM) was 90.59 % NTL, the “neurite growth length (% NTL)” value ([1]; 5 μM) was 88.24 % NTL and the “neurite growth length (% NTL)” value ([1]; 10 μM) was 82.90 % NTL. The “neurite growth length (% NTL)” value ([1]; 20 μM) was 86.59 % NTL.
In the case of COc1ccc(O)c(C(=O)c2ccc(C(=O)N[C@H]3CNC[C@@H]3NC(=O)c3ccncc3)cc2)c1F (stereo in doubt) [Example A34, N-[(3S,4S)-4-[4-(2-fluoro-6-hydroxy-3-methoxybenzoyl)benzamido]pyrrolidin-3-yl]pyridine-4-carboxamide], the EC50 (Primary Neurons) is reported as 13 µM, the “neurite growth length (% NTL)” value ([1]; 78 nM) is reported as 102.90 % NTL and the “neurite growth length (% NTL)” value ([1]; 156 nM) is reported as 102.77 % NTL. The “neurite growth length (% NTL)” value ([1]; 312 nM) was 92.06 % NTL, the “neurite growth length (% NTL)” value ([1]; 625 nM) was 92.27 % NTL and the “neurite growth length (% NTL)” value ([1]; 1.25 μM) was 95.84 % NTL. For the same compound, the “neurite growth length (% NTL)” value ([1]; 2.5 μM) was 105.94 % NTL, the “neurite growth length (% NTL)” value ([1]; 5 μM) was 110.06 % NTL and the “neurite growth length (% NTL)” value ([1]; 10 μM) was 118.29 % NTL. For the same compound, the “neurite growth length (% NTL)” value ([1]; 20 μM) was 130.91 % NTL.
For COc1ccc(OC)c(C(=O)c2ccc(C(=O)Nc3ccncc3NC(=O)c3ccncc3)cc2)c1F [Example A1, N-{4-[4-(2-fluoro-3,6-dimethoxybenzoyl)benzamido]pyridin-3-yl}pyridine-4-carboxamide], the EC50 (Primary Neurons; Primary neuron) was 9.34 µM, the activity at 0.078 µM ([1]; 78 nM) was 89.9% and the activity at 0.156 µM ([1]; 156 nM) was 89%. For the same compound, the activity at 0.312 µM ([1]; 312 nM) was 89.6%, the activity at 0.625 µM ([1]; 625 nM) was 91% and the activity at 1.25 µM ([1]; 1.25 μM) was 93.5%. The activity at 2.5 µM ([1]; 2.5 μM) was 85.8%, the activity at 5 µM ([1]; 5 μM) was 92.9% and the activity at 10 µM ([1]; 10 μM) was 87%. It also gave an activity at 20 µM ([1]; 20 μM) of 84.6%.
Compound COc1ccc(O)c(C(=O)c2ccc(C(=O)Nc3ccncc3NC(=O)c3ccncc3)cc2)c1F [Example A2, N-{4-[4-(2-fluoro-6-hydroxy-3-methoxybenzoyl)benzamido]pyridin-3-yl}pyridine-4-carboxamide] has an EC50 (Primary Neurons; Primary neuron) of 1.81 µM, an activity at 0.078 µM ([1]; 78 nM) of 93.8% and an activity at 0.156 µM ([1]; 156 nM) of 96.2%. For the same compound, the activity at 0.312 µM ([1]; 312 nM) was 84.6%, the activity at 0.625 µM ([1]; 625 nM) was 93% and the activity at 1.25 µM ([1]; 1.25 μM) was 88.9%. It also gave an activity at 2.5 µM ([1]; 2.5 μM) of 91.1%, an activity at 5 µM ([1]; 5 μM) of 94.1% and an activity at 10 µM ([1]; 10 μM) of 93.4%. It also gave an activity at 20 µM ([1]; 20 μM) of 100%.
CCOc1ccc(O)c(C(=O)c2ccc(C(=O)N[C@@H]3CNC[C@H]3NC(=O)c3ccncc3)cc2)c1 [Example A90, N-((3R,4R)-4-(4-(5-ethoxy-2-hydroxybenzoyl)benzamido)pyrrolidin-3-yl)isonicotinamide] was tested, and the EC50 (Primary Neurons; Primary neuron) was 1.79 µM.
O=C(N[C@@H]1CNC[C@H]1NC(=O)c1ccc(C(=O)c2cc(F)ccc2O)cc1)c1ccncc1 [Example A91, N-((3R,4R)-4-(4-(5-fluoro-2-hydroxybenzoyl)benzamido)pyrrolidin-3-yl)isonicotinamide] was tested, and the EC50 (Primary Neurons; Primary neuron) was 3.41 µM.
For O=C(N[C@@H]1CNC[C@H]1NC(=O)c1ccc(C(=O)c2cc(-c3ccccc3)ccc2O)cc1)c1ccncc1 [Example A93, N-((3R,4R)-4-(4-(4-hydroxy-[1,1′-biphenyl]-3-carbonyl)benzamido)pyrrolidin-3-yl)isonicotinamide], the EC50 (Primary Neurons; Primary neuron) was 13.3 µM.
Work on COc1ccc(O)c(C(=O)c2ccc(C(=O)N[C@@H]3CCCNC[C@H]3NC(=O)c3ccncc3)cc2)c1F [Example A94, N-((3R,4R)-4-(4-(2-fluoro-6-hydroxy-3-methoxybenzoyl)benzamido)azepan-3-yl)isonicotinamide] yielded an EC50 (Primary Neurons; Primary neuron) of 0.813 µM.
CCc1ccc(O)c(C(=O)c2ccc(C(=O)N[C@@H]3CNC[C@H]3NC(=O)c3ccncc3)cc2)c1 [Example A95, N-((3R,4R)-4-(4-(5-ethyl-2-hydroxybenzoyl)benzamido)pyrrolidin-3-yl)isonicotinamide] was tested, and the EC50 (Primary Neurons; Primary neuron) was 9.77 µM.
In the case of O=C(N[C@@H]1CNC[C@H]1NC(=O)c1ccc(C(=O)c2cc(OC(F)(F)F)ccc2O)cc1)c1ccncc1 [Example A96, N-((3R,4R)-4-(4-(2-hydroxy-5-(trifluoromethoxy)benzoyl)benzamido)pyrrolidin-3-yl)isonicotinamide], the EC50 (Primary Neurons; Primary neuron) is reported as 1.45 µM.
O=C(N[C@@H]1CNC[C@H]1NC(=O)c1ccc(C(=O)c2cc(OCc3ccccc3)ccc2O)cc1)c1ccncc1 [Example A97, N-((3R,4R)-4-(4-(5-(benzyloxy)-2-hydroxybenzoyl)benzamido)pyrrolidin-3-yl)isonicotinamide] showed an EC50 (Primary Neurons; Primary neuron) of 11.3 µM.
CC(C)(C)Oc1ccc(O)c(C(=O)c2ccc(C(=O)N[C@@H]3CNC[C@H]3NC(=O)c3ccncc3)cc2)c1 [Example A98, N-((3R,4R)-4-(4-(5-(tert-butoxy)-2-hydroxybenzoyl)benzamido)pyrrolidin-3-yl)isonicotinamide] gave an EC50 (Primary Neurons; Primary neuron) of 9.97 µM.
In the case of O=C(N[C@@H]1CNC[C@H]1NC(=O)c1ccc(C(=O)c2cc(C(F)(F)F)ccc2O)cc1)c1ccncc1 [Example A99, N-((3R,4R)-4-(4-(2-hydroxy-5-(trifluoromethyl)benzoyl)benzamido)pyrrolidin-3-yl)isonicotinamide], the EC50 (Primary Neurons; Primary neuron) is reported as 2.36 µM.
